# Measured values: patent US10087165B2, “Fluoroquinolones and use thereof to treat bacterial infections” (UNIVERSITÉ PIERRE ET MARIE CURIE—PARIS 6 (UPMC), priority 2014, dated 2018)
# Where two headings read alike, the source gives them in different places.
# Assays:
# [1] = type: physicochemical
# Experimental: A solubility assay was performed on both Quin 18 and Quin 19 in appropriated vehicles for per os injection into mice to obtain a fine suspension at maximal concentration (MC) of each compound. The solubility of each compound in each vehicle was evaluated by observation of potential precipitate.
# [2] = biological target: M. tuberculosis DNA gyrase (Mycobacterium tuberculosis, UniProt P9WG45+P9WG47); experiment: biochemical
# Chain of M. tuberculosis DNA gyrase (P9WG47 whole entry): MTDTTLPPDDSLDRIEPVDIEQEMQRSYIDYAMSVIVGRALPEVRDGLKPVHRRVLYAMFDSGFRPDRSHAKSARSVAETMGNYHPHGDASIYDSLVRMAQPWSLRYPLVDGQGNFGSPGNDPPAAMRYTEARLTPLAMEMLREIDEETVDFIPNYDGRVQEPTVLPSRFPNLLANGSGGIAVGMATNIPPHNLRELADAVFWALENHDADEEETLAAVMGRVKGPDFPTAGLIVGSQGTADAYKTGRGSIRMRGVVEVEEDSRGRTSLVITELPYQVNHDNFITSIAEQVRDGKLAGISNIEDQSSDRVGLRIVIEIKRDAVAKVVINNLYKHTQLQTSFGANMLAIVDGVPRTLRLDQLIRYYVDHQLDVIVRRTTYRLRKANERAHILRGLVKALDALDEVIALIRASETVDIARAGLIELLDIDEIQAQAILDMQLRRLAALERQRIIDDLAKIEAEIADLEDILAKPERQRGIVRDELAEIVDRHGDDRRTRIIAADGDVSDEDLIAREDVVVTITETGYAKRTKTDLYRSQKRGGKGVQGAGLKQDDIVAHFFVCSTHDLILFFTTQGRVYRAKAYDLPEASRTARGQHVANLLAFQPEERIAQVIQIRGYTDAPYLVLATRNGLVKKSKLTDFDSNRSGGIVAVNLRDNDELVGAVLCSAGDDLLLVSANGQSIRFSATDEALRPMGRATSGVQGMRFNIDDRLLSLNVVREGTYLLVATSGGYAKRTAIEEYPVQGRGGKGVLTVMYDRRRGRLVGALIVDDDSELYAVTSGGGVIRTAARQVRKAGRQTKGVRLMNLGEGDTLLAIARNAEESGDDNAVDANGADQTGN
# Chain of M. tuberculosis DNA gyrase (P9WG45 whole entry): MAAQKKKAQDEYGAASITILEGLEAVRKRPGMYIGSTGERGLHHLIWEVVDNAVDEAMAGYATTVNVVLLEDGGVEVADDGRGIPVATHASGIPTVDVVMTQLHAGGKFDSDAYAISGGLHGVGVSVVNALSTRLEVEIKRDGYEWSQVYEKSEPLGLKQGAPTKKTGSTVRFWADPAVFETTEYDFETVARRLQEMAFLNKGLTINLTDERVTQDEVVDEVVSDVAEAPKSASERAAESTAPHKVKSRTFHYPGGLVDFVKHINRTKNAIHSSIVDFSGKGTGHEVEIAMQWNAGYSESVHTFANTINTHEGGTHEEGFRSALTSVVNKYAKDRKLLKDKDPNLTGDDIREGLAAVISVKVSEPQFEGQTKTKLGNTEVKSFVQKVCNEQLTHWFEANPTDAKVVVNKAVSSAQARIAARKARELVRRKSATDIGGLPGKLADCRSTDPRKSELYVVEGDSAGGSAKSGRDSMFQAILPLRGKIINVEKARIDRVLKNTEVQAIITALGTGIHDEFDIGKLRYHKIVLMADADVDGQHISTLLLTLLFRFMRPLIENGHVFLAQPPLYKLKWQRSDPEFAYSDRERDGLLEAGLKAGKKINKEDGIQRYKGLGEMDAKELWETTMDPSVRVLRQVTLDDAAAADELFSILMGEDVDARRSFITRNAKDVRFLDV
# [3] = test system: M. tuberculosis H37Rv strain; experiment: Minimal effective dosage in the murine TB model; type: in vivo, Balb/C/J female mice; design: Mice weight: unit not given here; settings: for Mice weight / Spleen weight / Survival: No. death: Gavage; for Survival: No. death: 10 mice
# Experimental: Four-week-old Balb/C/J female mice were infected intravenously with 10^6 CFU of M. tuberculosis H37Rv strain. On the day following the infection (D1), 10 mice were sacrificed to determine the exact baseline values of spleen weight and CFU counts in the lungs. The remaining mice were allocated to the following treatment groups: an untreated negative control group for survival monitoring, a positive control group treated for 1 month with isoniazid (INH) 25 mg/kg/d, […] test groups were treated with Quin18 and Quin19 at increasing dosages (25 mg/kg/d; 50 mg/kg/d; 100 mg/kg/d; 150 mg/kg/d) given by oral gavage, and two additional test groups were treated intravenously with Quin18 25 mg/kg/d and 100 mg/kg/d. All the groups contained 10 mice and were treated from D1 to D28, 5 days a week. The parameters used for assessing the severity of infection and the effectiveness of treatments were survival rate, spleen weight, gross lung lesions and CFU counts in the lungs.
# The minimal effective dosage was defined as the minimal dosage able to prevent mortality of the mice, spleen enlargement and the occurrence of gross lung lesions. CFU counts were considered to be a more precise way of determining the dose-ranging efficacy of Quin18 and Quin19.
# Survival rates between groups were plotted on a Kaplan-Meier curve and compared using the log-rank test.
# [4] = Acute toxicity in healthy female CD-1 mice after a single oral treatment; type: in vivo
# Experimental: The aim of this study was to evaluate the acute toxicity of two new compounds (Quin 18 and Quin 19) in healthy female CD-1 after a single oral treatment at D0.
# Toxicity of treatment was evaluated by monitoring of animals (general signs of pharmacologic and toxicity effects, morbidity, mortality and evident signs of toxicity, as well as twice-weekly monitoring for clinical signs and body weight) until the end of the experiment (D14). At the end of the experiment, animals were sacrificed and macroscopic autopsy was performed.
# Mice of each group were administered by per os (PO) injection at 10 ml/kg according to the standard operating procedure No. TEC-078. The recommended volume for per os (PO) administration in mice is 10 ml/kg.
# Morbidity, mortality and evident signs of toxicity of mice were considered daily from D0 until the end of the experiment (D14 or D15).
# Monitoring of mice for detailed behavioral and clinical observations was performed twice a week from D0 until the end of the experiment (D14 or D15) according to the standard operating procedures No. TEC-192.
# Body weight of mice was monitored at D1, D2 and then twice a week until the end of the experiment (D14 or D15) according to the standard operating procedures No. TEC-108. Weight loss was assessed against the starting weight of each mouse at D0.
# During the course of the experiment, animals were sacrificed if any of the following occurs: • Signs of suffering (cachexia, weakening, difficulty to move or to eat), • Compound toxicity (hunching, convulsions), • 25% body weight loss on any day. Sacrifice of Animals
# At D14 or D15, animals were be sacrificed by CO2 inhalation and a macroscopic autopsy was performed.
# M. tuberculosis H37Rv = experiment: microbe, parasite or virus in culture; type: cell-based; settings: for MIC: Mycobacterium tuberculosis
compound,measurement,setting,value
"CCCCCCCCCCN1CCN(c2c(F)cc3c(=O)c(C(=O)O)cn(C4CC4)c3c2OC)CC1 [Quin 19, 1-cyclopropyl-7-(4-decylpiperazin-1-yl)-6-fluoro-8-methoxy-4-oxo-1,4-dihydroquinoline-3-carboxylic acid]",Excipient allowing the best solubilisation,[1],corn oil
same,IC50,[2],150 µM
same,Mice weight,[3]; 25 mg/kg/j,19.3 ± 2.6
same,Spleen weight,[3]; 25 mg/kg/j,332 ± 141.1 mg
same,Survival: No. death,"[3]; 25 mg/kg/j, D1 to D28, 5 days a week",1
same,Mice weight,[3]; 50 mg/kg/j,18 ± 3.4
same,Spleen weight,[3]; 50 mg/kg/j,305.6 ± 181.5 mg
same,Survival: No. death,[3]; 50 mg/kg/j,2
same,Mice weight,[3]; 100 mg/kg/j,20.2 ± 1.3
same,Spleen weight,[3]; 100 mg/kg/j,253 ± 127.2 mg
same,Survival: No. death,[3]; 100 mg/kg/j,0
same,Mice weight,[3]; 150 mg/kg/j,20.7 ± 0.8
same,Spleen weight,[3]; 150 mg/kg/j,222 ± 106.2 mg
same,Survival: No. death,[3]; 150 mg/kg/j,0
same,Efficacy in a mouse model of tuberculosis (in words),[3]; given orally,outstanding efficacy
same,Survival compared with untreated group (in words),"[3]; whatever the dosage (25, 50, 100 and 150 mg/kg/d) and the administration route",statistically superior to untreated group
same,Loss of body weight (in words),[4]; Group B1: 100 mg/kg PO Q1Dx1,did not exhibited any loss of body weight
same,Tolerance (in words),"[4]; Group B1: 100 mg/kg PO Q1Dx1, corn oil, with sonication",well tolerated
same,Mean body weight (MBW),"[4]; Group B1: 100 mg/kg PO Q1Dx1, with sonication, D1",29.73 ± 0.83 g
same,Mean body weight (MBW),"[4]; Group B1: 100 mg/kg PO Q1Dx1, with sonication, D2",29.9 ± 0.2 g
same,Mean body weight (MBW),"[4]; Group B1: 100 mg/kg PO Q1Dx1, with sonication, D3",30.23 ± 0.4 g
same,Mean body weight (MBW),"[4]; Group B1: 100 mg/kg PO Q1Dx1, with sonication, D4",30.5 ± 0.98 g
same,Mean body weight (MBW),"[4]; Group B1: 100 mg/kg PO Q1Dx1, with sonication, D7",31.2 ± 0.1 g
same,Mean body weight (MBW),"[4]; Group B1: 100 mg/kg PO Q1Dx1, with sonication, D11",32.17 ± 1.36 g
same,Mean body weight (MBW),"[4]; Group B1: 100 mg/kg PO Q1Dx1, with sonication, D14",31.4 ± 0.44 g
same,Macroscopic autopsy: Observations,"[4]; Group B1: 100 mg/kg PO Q1Dx1, *one mouse had air bubble in the caecum",NTR*
same,Mean body weight (MBW),"[4]; Group B1: corn oil, 10 mg/ml with sonication, 100 mg/kg PO Q1Dx1, D0, 100 mg/kg",31.67 ± 2.25 g
same,Loss of body weight (in words),[4]; Group B2: 200 mg/kg PO Q1Dx1,did not exhibited any loss of body weight
same,Tolerance (in words),"[4]; Group B2: 200 mg/kg PO Q1Dx1, corn oil, with sonication",well tolerated
same,Mean body weight (MBW),"[4]; Group B2: 200 mg/kg PO Q1Dx1, with sonication, D1",30.97 ± 0.4 g
same,Mean body weight (MBW),"[4]; Group B2: 200 mg/kg PO Q1Dx1, with sonication, D2",30.93 ± 0.25 g
same,Mean body weight (MBW),"[4]; Group B2: 200 mg/kg PO Q1Dx1, with sonication, D3",30.3 ± 0.85 g
same,Mean body weight (MBW),"[4]; Group B2: 200 mg/kg PO Q1Dx1, with sonication, D7",31.6 ± 1.97 g
same,Mean body weight (MBW),"[4]; Group B2: 200 mg/kg PO Q1Dx1, with sonication, D10",32.1 ± 3.2 g
same,Mean body weight (MBW),"[4]; Group B2: 200 mg/kg PO Q1Dx1, with sonication, D14",31.9 ± 1.15 g
same,Macroscopic autopsy: Observations,"[4]; Group B2: 200 mg/kg PO Q1Dx1, sacrifice at end of study",NTR
same,Mean body weight (MBW),"[4]; Group B2: corn oil, 20 mg/ml with sonication, 200 mg/kg PO Q1Dx1, D0, 200 mg/kg",30.67 ± 0.21 g
same,Loss of body weight (in words),[4]; Group B3: 200 mg/kg PO Q1Dx1,did not exhibited any loss of body weight
same,Tolerance (in words),"[4]; Group B3: 200 mg/kg PO Q1Dx1, corn oil, without sonication",well tolerated
same,Mean body weight (MBW),"[4]; Group B3: 200 mg/kg PO Q1Dx1, without sonication, D1",32.73 ± 1.46 g
same,Mean body weight (MBW),"[4]; Group B3: 200 mg/kg PO Q1Dx1, without sonication, D2",32.5 ± 0.62 g
same,Mean body weight (MBW),"[4]; Group B3: 200 mg/kg PO Q1Dx1, without sonication, D4",31.73 ± 0.9 g
same,Mean body weight (MBW),"[4]; Group B3: 200 mg/kg PO Q1Dx1, without sonication, D7",32.2 ± 0.5 g
same,Mean body weight (MBW),"[4]; Group B3: 200 mg/kg PO Q1Dx1, without sonication, D11",34.1 ± 1.51 g
same,Mean body weight (MBW),"[4]; Group B3: 200 mg/kg PO Q1Dx1, without sonication, D15",35.43 ± 1.99 g
same,Macroscopic autopsy: Observations,"[4]; Group B3: 200 mg/kg PO Q1Dx1, sacrifice at end of study",NTR
same,Mean body weight (MBW),"[4]; Group B3: corn oil, 20 mg/ml without sonication, 200 mg/kg PO Q1Dx1, D0, 200 mg/kg",33.6 ± 2.11 g
same,Loss of body weight (in words),[4]; Group B4: 400 mg/kg PO 2Q1Dx1,did not exhibited any loss of body weight
same,Tolerance (in words),"[4]; Group B4: 400 mg/kg PO 2Q1Dx1, corn oil, without sonication",well tolerated
same,Mean body weight (MBW),"[4]; Group B4: 400 mg/kg PO 2Q1Dx1, without sonication, D1",30.47 ± 2.2 g
same,Mean body weight (MBW),"[4]; Group B4: 400 mg/kg PO 2Q1Dx1, without sonication, D2",30.47 ± 1.3 g
same,Mean body weight (MBW),"[4]; Group B4: 400 mg/kg PO 2Q1Dx1, without sonication, D5",31.03 ± 1.55 g
same,Mean body weight (MBW),"[4]; Group B4: 400 mg/kg PO 2Q1Dx1, without sonication, D9",31.77 ± 2.32 g
same,Mean body weight (MBW),"[4]; Group B4: 400 mg/kg PO 2Q1Dx1, without sonication, D13",31.7 ± 1.18 g
same,Mean body weight (MBW),"[4]; Group B4: 400 mg/kg PO 2Q1Dx1, without sonication, D14",32.53 ± 1 g
same,Macroscopic autopsy: Observations,"[4]; Group B4: 400 mg/kg PO 2Q1Dx1, sacrifice at end of study",NTR
same,Mean body weight (MBW),"[4]; Group B4: corn oil, 20 mg/ml without sonication, 400 mg/kg PO 2Q1Dx1 (2 hours between the 2 injections), D0, 400 mg/kg",31.03 ± 1.86 g
same,"Autopsy, macroscopic observations (in words)",[4]; all treated groups,No particular sign was observed
same,Dose up to which well tolerated (maximal solubility),"[4]; in corn oil, PO, female mice",up to 400 mg/kg
same,Signs of toxicity at the dose levels tested (in words),[4]; mice,no signs of toxicity
same,antibacterial activity against wild-type M. tuberculosis strain (in words),M. tuberculosis H37Rv; H37Rv,high antibacterial activity
same,MIC,"M. tuberculosis H37Rv; H37RV, Table 3, read-out: MIC M. tuberculosis H37Rv",< 0.12 µM
same,MIC,"M. tuberculosis H37Rv; H37Rv, Table 2, read-out: MIC (M. tuberculosis) WT",0.25 µM
